Results reported in US20140206678A1, “INHIBITORS OF MTOR KINASE AS ANTI -VIRAL AGENT” (KADMON CORPORATION, LLC, priority 2011, published 2014).
pIC50: −log10 of the molar value. “Also recorded” adds a separate entry of the source.

Assays:
[1] = biological target: mTOR (Homo sapiens, UniProt P42345); settings: read-out: IC50 (selective mTOR inhibitors); cited from earlier work
[2] = system: PI3Ks; settings: cited from earlier work
[3] = system: HCMV; test: HCMV yield in MRC5 fibroblasts at 96 hours post-infection (mTOR inhibitors); type: cell-based, human cytomegalovirus; settings: 0.5 pfu/cell, up to 5 μM
[4] = system: MCMV; test: MCMV replication in mouse embryo fibroblasts, TCID50; type: cell-based, murine cytomegalovirus; settings: wild-type MEFs; rapamycin 20 nM, Torin1 250 nM; 0.05 PFU/cell
[5] = system: HCMV; test: HCMV multistep growth in serum-starved human fibroblasts, cell-free virus by TCID50; type: cell-based, human cytomegalovirus; settings: day 10; rapamycin 20 nM, Torin1 250 nM; 0.05 PFU/cell
[6] = system: HCMV strain AD169; test: HCMV AD169 replication in human fibroblasts with 4-PBA alone or with mTOR inhibitors, TCID50; type: cell-based, human cytomegalovirus
[7] = system: confluent human fibroblasts; test: Trypan blue exclusion viability of confluent human fibroblasts (4-PBA); type: cell-based; settings: highest dose tested; eight days
Description: FIG. 11. 4-PBA is not toxic to uninfected or infected confluent human fibroblasts. (A) Fibroblasts were maintained in medium containing the indicated concentrations of 4-PBA for 8 days. The medium was replaced every other day throughout the time course. At the end of the treatment period, cell viability was measured by the trypan blue exclusion assay. Date points represent the mean of duplicate wells. (B) Fibroblasts were infected with HCMV at a multiplicity of 0.1 pfu/cell. Cells were fed every other day with fresh medium containing the indicated concentration of 4-PBA. At eight days post infection, cells were washed once with media, and then media lacking drug was added. Eight days later (16 days post infection) cell free virus in the supernatant was quantitated by the TCID50 method. Date points represent the mean of duplicate wells.
Two experiments were performed to rule out the possibility that 4-PBA is simply toxic to the cells and inhibits HCMV indirectly by reducing cell viability (FIG. 11). In the first experiment (FIG. 11A) an assay for cell viability was performed on confluent human fibroblasts treated for eight days with different concentrations of the drug. The highest dose of the drug tested had no effect on cellular viability in the trypan blue exclusion assay. […] Then the drug was removed and the yield of virus was determined 8 days later.

[8] = system: panel of 140 protein kinases; settings: read-out: IC50 against panel of 140 protein kinases; cited from earlier work

**Q.** Which results are given for `CNC(=O)Nc1ccc(-c2nc(N3C[C@H]4CC[C@@H](C3)O4)c3cnn(C4CCC5(CC4)OCCO5)c3n2)cc1` [WYE-125132]?
**A.** pIC50 [1]: 9.72; fold selective versus PI3Ks (PI3K) [2]: > 5,000 fold

**Q.** Which “HCMV virus production (yield as percentage of untreated cells)” value [3] does the source give for `Cn1c(=O)n(-c2ccc(C(C)(C)C#N)cc2)c2c3cc(-c4cnc5ccccc5c4)ccc3ncc21` [BEZ235] here?
**A.** inhibit virus production

**Q.** Which “HCMV virus production (yield as percentage of untreated cells)” value [3] does the source give for `CC(C)n1nc(-c2ccc3oc(N)nc3c2)c2c(N)ncnc21` [INK128] here?
**A.** inhibit virus production

**Q.** With `O=C(Nc1ccc(-c2nc(N3CC4CCC(C3)O4)c3sccc3n2)cc1)NC1CC1` [Wyeth-BMCL-200910075-9b] as the molecule, how does the pIC50 [1] read?
**A.** 9.15

**Q.** And the “fold selective versus PI3Ks (PI3K)” value [2]?
**A.** > 1,000 fold

**Q.** With `CO[C@H]1C[C@@H]2CC[C@@H](C)[C@@](O)(O2)C(=O)C(=O)N2CCCC[C@H]2C(=O)O[C@H]([C@H](C)C[C@@H]2CC[C@@H](O)[C@H](OC)C2)CC(=O)[C@H](C)/C=C(\C)[C@@H](O)[C@@H](OC)C(=O)[C@H](C)C[C@H](C)/C=C/C=C/C=C/1C` [rapamycin] as the molecule, how does the MCMV replication [4] read?
**A.** no inhibitory effect

**Q.** What about the “reduction of HCMV yield” value [5] of the same molecule?
**A.** ~8 fold

**Q.** With `O=C([O-])CCCc1ccccc1.[Na+]` [4-PBA, sodium 4-phenylbutyrate] as the molecule, how does the “virus yield 8 days after drug removal” value ([6]; all doses tested, 8-day treatment, 16 days post infection) read?
**A.** recovered and produced a normal yield

**Q.** What about the HCMV virus replication ([6]; dose-dependent, day 8 post infection, 0.1 pfu/cell) of the same molecule?
**A.** effectively inhibited; also recorded: inhibited virus production

**Q.** What about the “cellular viability, trypan blue exclusion assay” value [7] of the same molecule?
**A.** no effect

**Q.** Which “fold selective versus PI3Ks (PI3K)” value [2] does the source give for `COc1cc(-c2cn(-c3nc(N4CCOCC4)nc(N4CCOCC4)n3)cn2)cc(OC)c1O` [KU-BMCL-200908069-5] here?
**A.** > 500 fold

**Q.** With `Cc1c(C(=O)N2CCOc3ccc(-c4ccc(N)nc4)cc3C2)ccc(S(C)(=O)=O)c1F` [XL388] as the molecule, how does the pIC50 [8] read?
**A.** < 5.52

**Q.** For `CN1CCN(C(=O)c2ccc(NC(=O)Nc3ccc(-c4nc(N5CCOCC5)cc(N5C[C@H]6CC[C@@H](C5)O6)n4)cc3)cc2)CC1` [Wyeth—Compound 27], which “HCMV virus production (yield as percentage of untreated cells)” value [3] is on record?
**A.** inhibit virus production
